From patent US20240374520A1, “PROTEOLIPID VESICLES FORMULATED WITH FUSION ASSOCIATED SMALL TRANSMEMBRANE PROTEINS” (priority 2020, published 2024)

Test system: WI-38 cells
Format: cell-based, human
Settings: Alamar Blue, 72 hours after addition to WI-38 cells
Experimental: Conventional LNPs rely on endosomal escape for intracellular delivery, which results in limited nucleic acid release into the cytosol and is one of the major limitations of LNPs formulated for gene therapy (13, 20, 41). […] These lipids were utilized in a PLV formulation to promote nucleic acid encapsulation through charge neutralization. The optimal molar ratio of DODAP to pDNA was assessed by measuring the delivery and subsequent expression of DNA-encoded firefly luciferase (pDNA-FLuc) in retinal pigmented epithelial (ARPE-19) cells.
Cell cultures in a 96 well plates were treated with test compounds at indicated concentrations. After 24-96 hours, a 1/10 volume of Alamar blue solution (440 μM Resazurin; Sigma R7017 5GM) was added to the cells in culture medium and incubated for 2-4 hours at 37° C. 5% CO2. The Omega Fluostar (BMG LabTech) plate reader was used to measure the fluorescence (excitation wavelength of 540 nm and emission at 590 nm) of the treated cells. Cell viability was calculated using the following formula: […]

SMILES	tolerability / toxicity of cationic and ionizable lipids
CCCCCCCC/C=C\CCCCCCCC(=O)OCC(C[N+](C)(C)C)OC(=O)CCCCCCC/C=C\CCCCCCCC (centres unmarked) [DOTAP, 1,2-dioleoyl-3-trimethylammonium-propane]	slightly higher toxicity
CCCCCCCC/C=C\CCCCCCCC(=O)OCC(CN(C)C)OC(=O)CCCCCCC/C=C\CCCCCCCC (centres unmarked) [DODAP, 1,2-dioleoyl-3-dimethylammonium-propane]	most favorable tolerability
